Key:
[1] = tested on: fibroblasts established from LIS1 heterozygous mice (MEF); assay: Change in intracellular protein localization by SNJ-1945 (immunocytochemistry); type: cell-based, mouse; details: 200 μM, 2 hours
Procedure: A LIS1 gene hetero-deficient mice group and a wild-type mice (12.5- to 14.5-day-old embryos) group each consisting of five mice were prepared, and fibroblasts (MEF; mouse embryonic fibroblast) were established from each group in the same manner as above (more specifically, fibroblasts were established by grouping the same gene type). Using the cells, immunocytochemistry was performed as follows. The influence of SNJ-1945 on intracellular protein localization in each cell was analyzed. First, a slide glass (24×24 mm; Matsunami Glass Ind., Ltd.) washed beforehand with 0.1 N hydrochloric acid was placed on a 6-well plate (Nunc), and MEF cells were seeded in an amount of 1.0×10^5 cells per well in a D-MEM culture solution (containing 10% fetal bovine blood serum; Wako Pure Chemical Ind. Ltd.). Subsequently, the 6-well plate was cultured overnight at 37° C. under 5% CO2, and SNJ-1945 was added thereto so that the final concentration became 200 μM. The incubation was performed for another 2 hours under the same conditions.
As a control experiment, the same experiment was performed by adding 1% dimethylsulfoxide (DMSO). After washing with phosphate buffer (PBS), the MEF cells were immobilized using 4% paraformaldehyde (Wako, 162-16065) (at room temperature, for 15 minutes). […] After incubation, the cells were washed well with PBS, and embedded using glycerol (Merck) for fluorescence microscope observation. […]
After careful observation using a confocal laser microscope (TCS-SP5, Leica), the intracellular locations of the individual factors in MEF cells under varying conditions are classified into “cells clustered around the nucleus” and “cells distributed to the entire cytoplasm.” For each cell group, 10 samples, each of which consists of 10 arbitrarily extracted cells, i.e., 100 cells in total for each group, were evaluated, and the average value±standard deviation was calculated. […]

[2] = tested on: LIS1 heterozygous mice (Lis1+/−) embryos; assay: Apoptosis in mouse embryo brains (TUNEL staining); type: in vivo; details: 100 μg/g IP to pregnant mice on alternate days from E9.5, read at E15.5, FIG. 9
Procedure: A neo(−)129S-Pafah1b1^tm2Awb/J homozygous male mouse lacking neo gene was mated with five homozygous EII-Cre transgenic female mice (FVB/N-Tg (EIIa-cre) C5379Lmgd/J, The Jackson Laboratory) by raising them in the same mouse cage. In total, six sets of mouse cages were prepared for the mating experiment. Plug check (confirmation of mating) was carried out every morning between 7 and 10 am, thereby determining the gestation cycle. SNJ-1945 was dissolved in dimethyl sulfoxide (DMSO) at a concentration of 100 mg/ml, and intraperitoneally injected to the pregnant mice carrying LIS1 heterozygous mice (Lis1^+/−) and the pregnant mice carrying control mice (normal mouse embryos), so that the administration amount became 100 μg per gram of body weight on alternate days from Day 9.5 of the embryonic period (E9.5). On Day 15.5 of the embryonic period (E15.5), the pregnant mice were killed by cervical fracture, and the mouse embryos were removed and immobilized for 24 hours by 4% paraformaldehyde (Wako: 162-16065). After substitution with PBS, paraffin embedding was performed by a standard method. The tissue block was cut into 5 μm pieces. Each piece was adhered to an APS-coated slide glass. After deparaffinization, 20 μg/ml proteinase K/PBS treatment was conducted for 15 minutes at room temperature, and 3% H2O2/PBS treatment was performed for ten minutes at room temperature. […]

## COCCOCCOC(=O)N[C@@H](CC(C)C)C(=O)N[C@@H](Cc1ccccc1)C(=O)C(=O)NC1CC1 [compound 17, ((1S)-1-((((1S)-1-Benzyl-2,3-dioxo-3-(cyclopropylamino)propyl)amino)carbonyl)-3-methylbutyl)carbamic acid 5-methoxy-3-oxapentyl ester]
[1]; FIG. 2
  LIS1 amount around the centrosome (intracellular localization): the LIS1 amount can be recovered
[1]; FIG. 3
  cytoplasmatic dynein amount / localization: the cytoplasmatic dynein amount can also be recovered
[1]; FIG. 4
  β-COP distribution: the distribution is normalized
[2]
  apoptosis in embryo brain (TUNEL): significantly reduced
